The test system of assay [1] is woodchuck hepatitis virus (WHV). As to the kind of experiment: Woodchuck model of chronic HBV infection (WHV DNA in serum). The class given is in vivo, woodchucks (Marmota monax). The method, then:
The efficacy of L-dA, L-dT and L-dC against hepadnavirus infection in woodchucks (Marmota monax) chronically infected with woodchuck hepatitis virus (WHV) was determined. This animal model of HBV infection is widely accepted and has proven to be useful for the evaluation of antiviral agents directed against HBV. Experimental groups (n=3 animals/drug group, n=4 animals/control) [table] Drugs were administered by oral gavage once daily, and blood samples taken on days 0, 1, 3, 7, 14, 21, 28, and on post-treatment days +1, +3, +7, +14, +28 and +56. Assessment of the activity and toxicity was based on the reduction of WHV DNA in serum: dot-blot, quantative PCR.

In the next assay the target is T1, human DNA polymerase α (Homo sapiens, UniProt P09884).
T1 sequence (P09884 1-1462): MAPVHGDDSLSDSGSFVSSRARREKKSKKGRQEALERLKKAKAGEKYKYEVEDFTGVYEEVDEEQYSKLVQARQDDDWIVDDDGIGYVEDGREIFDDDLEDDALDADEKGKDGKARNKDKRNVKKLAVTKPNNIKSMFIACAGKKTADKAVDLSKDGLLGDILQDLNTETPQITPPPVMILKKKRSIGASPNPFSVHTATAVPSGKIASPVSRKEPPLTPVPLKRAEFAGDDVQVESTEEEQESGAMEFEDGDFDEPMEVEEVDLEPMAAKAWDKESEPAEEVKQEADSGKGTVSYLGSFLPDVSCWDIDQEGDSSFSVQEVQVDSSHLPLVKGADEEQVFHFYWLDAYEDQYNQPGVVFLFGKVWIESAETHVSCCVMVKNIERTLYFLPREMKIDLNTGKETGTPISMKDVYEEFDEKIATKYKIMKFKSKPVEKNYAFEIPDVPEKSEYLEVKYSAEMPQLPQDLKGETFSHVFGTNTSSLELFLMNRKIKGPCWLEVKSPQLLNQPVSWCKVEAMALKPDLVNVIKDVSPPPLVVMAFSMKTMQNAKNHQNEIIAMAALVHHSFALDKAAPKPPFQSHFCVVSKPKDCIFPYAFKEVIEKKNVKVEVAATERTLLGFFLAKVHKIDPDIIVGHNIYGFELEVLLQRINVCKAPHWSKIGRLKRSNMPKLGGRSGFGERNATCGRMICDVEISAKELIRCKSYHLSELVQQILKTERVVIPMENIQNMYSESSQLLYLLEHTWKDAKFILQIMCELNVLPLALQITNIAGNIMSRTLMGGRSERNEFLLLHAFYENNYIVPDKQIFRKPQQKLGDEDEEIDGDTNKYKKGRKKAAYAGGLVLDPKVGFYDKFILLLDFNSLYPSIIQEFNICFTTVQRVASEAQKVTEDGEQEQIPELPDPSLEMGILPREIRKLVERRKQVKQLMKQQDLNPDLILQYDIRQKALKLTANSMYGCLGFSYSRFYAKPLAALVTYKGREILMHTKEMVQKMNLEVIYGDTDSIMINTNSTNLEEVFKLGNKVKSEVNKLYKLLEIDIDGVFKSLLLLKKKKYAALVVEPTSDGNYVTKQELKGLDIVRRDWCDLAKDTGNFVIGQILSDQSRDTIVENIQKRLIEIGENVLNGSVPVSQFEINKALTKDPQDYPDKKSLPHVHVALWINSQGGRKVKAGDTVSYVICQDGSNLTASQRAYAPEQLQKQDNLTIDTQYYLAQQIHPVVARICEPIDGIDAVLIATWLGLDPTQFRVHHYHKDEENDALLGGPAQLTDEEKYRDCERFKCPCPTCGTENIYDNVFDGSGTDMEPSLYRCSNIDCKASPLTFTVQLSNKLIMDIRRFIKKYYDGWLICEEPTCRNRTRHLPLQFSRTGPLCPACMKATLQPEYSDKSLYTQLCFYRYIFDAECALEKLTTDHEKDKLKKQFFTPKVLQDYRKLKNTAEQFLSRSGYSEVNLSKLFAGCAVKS
The experiment in a line: Inhibition of human DNA polymerase α (Dixon plot, calf thymus activated DNA, dATP). It counts as biochemical. As to conditions: calf thymus activated DNA as template-primer, dATP as substrate; read-out: DNA pol α Ki.

The target of the next assay is human DNA polymerase β (Homo sapiens, UniProt P06746). As to the kind of experiment: Inhibition of human DNA polymerase β (Dixon plot, calf thymus activated DNA, dATP). The class given is biochemical. As to conditions: calf thymus activated DNA as template-primer, dATP as substrate; read-out: DNA pol β Ki.
Assay [2] has as its target woodchuck hepatitis virus (WHV) DNA polymerase (Woodchuck hepatitis B virus, UniProt P03160). The experiment in a line: Inhibition of woodchuck hepatitis virus (WHV) DNA polymerase by triphosphates.
The target in a further assay is T2, human DNA polymerase γ (Homo sapiens, UniProt P54098).
T2 sequence (P54098 1-1239): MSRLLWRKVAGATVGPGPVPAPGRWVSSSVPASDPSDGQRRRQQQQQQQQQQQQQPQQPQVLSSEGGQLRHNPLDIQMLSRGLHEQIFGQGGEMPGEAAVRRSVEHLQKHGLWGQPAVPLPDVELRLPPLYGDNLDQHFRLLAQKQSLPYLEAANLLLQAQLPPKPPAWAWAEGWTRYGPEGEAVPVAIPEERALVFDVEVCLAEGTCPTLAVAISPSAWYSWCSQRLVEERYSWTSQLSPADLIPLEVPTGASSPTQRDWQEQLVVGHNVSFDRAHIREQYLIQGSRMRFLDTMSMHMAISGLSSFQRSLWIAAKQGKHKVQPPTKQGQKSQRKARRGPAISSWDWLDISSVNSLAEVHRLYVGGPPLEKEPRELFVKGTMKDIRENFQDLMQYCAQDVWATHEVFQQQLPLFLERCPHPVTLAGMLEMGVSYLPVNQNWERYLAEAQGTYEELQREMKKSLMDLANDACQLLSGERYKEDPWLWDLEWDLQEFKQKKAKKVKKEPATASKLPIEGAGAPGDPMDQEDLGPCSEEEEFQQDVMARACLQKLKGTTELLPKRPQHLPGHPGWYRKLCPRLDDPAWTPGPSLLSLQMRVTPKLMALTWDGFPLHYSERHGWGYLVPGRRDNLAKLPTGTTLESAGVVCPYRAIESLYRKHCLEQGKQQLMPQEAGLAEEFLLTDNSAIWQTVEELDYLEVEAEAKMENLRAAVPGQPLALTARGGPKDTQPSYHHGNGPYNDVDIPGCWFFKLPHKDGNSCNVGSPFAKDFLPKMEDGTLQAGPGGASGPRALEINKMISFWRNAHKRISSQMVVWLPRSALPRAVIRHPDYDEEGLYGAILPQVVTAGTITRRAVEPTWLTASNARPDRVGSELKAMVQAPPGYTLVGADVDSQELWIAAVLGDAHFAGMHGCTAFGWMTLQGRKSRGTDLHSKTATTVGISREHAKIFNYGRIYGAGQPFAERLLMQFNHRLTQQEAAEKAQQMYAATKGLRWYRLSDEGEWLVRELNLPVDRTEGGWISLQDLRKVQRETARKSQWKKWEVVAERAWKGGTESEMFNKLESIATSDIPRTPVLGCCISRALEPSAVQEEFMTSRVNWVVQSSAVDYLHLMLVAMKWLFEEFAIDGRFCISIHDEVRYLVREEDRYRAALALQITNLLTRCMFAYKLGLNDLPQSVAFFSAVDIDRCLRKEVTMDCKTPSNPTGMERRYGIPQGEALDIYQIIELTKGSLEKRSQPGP
As to the kind of experiment: Inhibition of human DNA polymerase γ (Dixon plot, calf thymus activated DNA, dATP). To be noted: calf thymus activated DNA as template-primer, dATP as substrate; read-out: DNA pol γ Ki. It counts as biochemical.

The results in this text go back to patent publication US6566344B1, “β-L-2′-deoxy-nucleosides for the treatment of hepatitis B” (priority 1998, dated 2003).

woodchuck hepatitis virus (WHV) DNA polymerase, sequence (P03160 whole entry): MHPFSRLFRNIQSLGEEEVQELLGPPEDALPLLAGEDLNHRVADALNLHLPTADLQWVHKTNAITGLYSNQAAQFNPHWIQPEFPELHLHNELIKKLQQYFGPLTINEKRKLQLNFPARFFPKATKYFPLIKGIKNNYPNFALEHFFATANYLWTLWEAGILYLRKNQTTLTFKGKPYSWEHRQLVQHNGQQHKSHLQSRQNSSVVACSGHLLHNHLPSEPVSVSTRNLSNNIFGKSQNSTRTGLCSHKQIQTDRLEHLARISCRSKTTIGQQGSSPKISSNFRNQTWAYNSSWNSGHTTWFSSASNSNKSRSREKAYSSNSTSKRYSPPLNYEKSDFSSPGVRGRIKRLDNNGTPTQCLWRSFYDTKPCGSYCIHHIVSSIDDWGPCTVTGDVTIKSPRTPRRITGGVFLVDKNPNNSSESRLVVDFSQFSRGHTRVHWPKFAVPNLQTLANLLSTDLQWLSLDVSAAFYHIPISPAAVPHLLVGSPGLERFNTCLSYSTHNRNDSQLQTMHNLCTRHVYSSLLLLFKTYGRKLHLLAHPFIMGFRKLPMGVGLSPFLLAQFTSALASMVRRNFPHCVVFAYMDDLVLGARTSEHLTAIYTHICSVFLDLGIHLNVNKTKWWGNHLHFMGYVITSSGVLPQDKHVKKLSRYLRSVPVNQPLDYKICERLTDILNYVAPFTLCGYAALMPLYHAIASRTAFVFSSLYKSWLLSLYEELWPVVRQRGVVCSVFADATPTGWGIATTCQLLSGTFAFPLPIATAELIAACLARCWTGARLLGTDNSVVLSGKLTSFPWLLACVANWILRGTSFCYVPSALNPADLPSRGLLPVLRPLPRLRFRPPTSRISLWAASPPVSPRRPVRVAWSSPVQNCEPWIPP

With `Nc1ncnc2c1ncn2[C@@H]1C[C@@H](O)[C@H](CO)O1` [β-L-dA, 2′-Deoxy-β-L-adenosine], in assay [1], the “activity compared with 3TC (lamivudine)” value is “more active than 3TC (lamivudine)” and the “viral load reduced to (level)” value is on record as “nearly undetectable”.

With `Nc1ncnc2c1ncn2[C@@H]1C[C@@H](O)[C@H](COP(=O)(O)OP(=O)(O)OP(=O)(O)O)O1` [β-L-dA-TP], the Ki at human DNA polymerase α and at human DNA polymerase β was greater than 100 µM throughout. In assay [2], this compound had a concentration for half-maximal inhibition (IC50) of 2.3 µM.

As for `Nc1ccn([C@@H]2C[C@@H](O)[C@H](CO)O2)c(=O)n1` [β-L-dC, 2′-Deoxy-β-L-cytidine], in assay [1], the “activity compared with 3TC (lamivudine)” value is on record as “more active than 3TC (lamivudine)” and the “viral load reduced to (level)” value is given as “nearly undetectable”.

`Nc1ccn([C@@H]2C[C@@H](O)[C@H](COP(=O)(O)OP(=O)(O)OP(=O)(O)O)O2)c(=O)n1` [β-L-dC-TP]: the Ki at human DNA polymerase α, at human DNA polymerase β and at human DNA polymerase γ was greater than 100 µM throughout. Further, in assay [2], the midpoint of inhibition, the IC50, lay at 2 µM.

On to `Cc1cn([C@@H]2C[C@@H](O)[C@H](CO)O2)c(=O)[nH]c1=O` [β-L-dT, 2′-Deoxy-β-L-Thymidine], for which, in assay [1], the “activity compared with 3TC (lamivudine)” value was “more active than 3TC (lamivudine)” and the “viral load reduced to (level)” value is listed as “undetectable”. The “viral rebound after withdrawal” value in assay [1] (post-treatment) is “not detected for at least two weeks”.

Regarding `Cc1cn([C@@H]2C[C@@H](O)[C@H](COP(=O)(O)OP(=O)(O)OP(=O)(O)O)O2)c(=O)[nH]c1=O` [β-L-dT-TP], the inhibitory constant (Ki) at human DNA polymerase α, at human DNA polymerase β and on human DNA polymerase γ was greater than 100 µM throughout. Further, in assay [2], the IC50 came out at 0.34 µM.

For the compound `O=c1ccn([C@@H]2C[C@@H](O)[C@H](COP(=O)(O)OP(=O)(O)OP(=O)(O)O)O2)c(=O)[nH]1` [β-L-dU-TP], the inhibitory constant (Ki) at human DNA polymerase α, on human DNA polymerase β and at human DNA polymerase γ was greater than 100 µM each time. The compound further yielded a 50% inhibitory concentration (IC50) in assay [2] of 8 µM.
